Patent publication US10201528B2, “Method of treating multiple sclerosis” (Assistance Publique Hopitaux De Paris, priority 2012, dated 2019)
“Also recorded” adds a separate entry of the source.

Key:
[1] = system: patients with a progressive form of multiple sclerosis; test: Clinical cases: patients with progressive multiple sclerosis treated with biotin; type: in vivo, human
Method: Three patients with a progressive form of multiple sclerosis received biotin. […]
A person, without any particular personal history. […] Treatment with interferon Ib (betaferon) began in February 2008.
Three Solumedrol infusions were carried out in September 2010 and then 4 infusions between 8 and 11 Aug.
Treatment with biotin was then introduced on 6 Mar. 2012 at the dose of 100 mg/day until March 30 and then 200 mg/day from April 6 to 6 May 2012 then 300 mg/day from 6 May 2012 to 7 Jun. 2012. Two complete ophthalmological examinations were carried out during this period of time: a first on 30 Mar. […]

multiple sclerosis = settings: attacks less numerous and less severe, improvement of lesions visible by MRI; cited from earlier work
[2] = patient 1, after six months of treatment
[3] = patient 1, biotin 100 mg three times a day, three months

## C[C@H]1C[C@@H]2[C@H]([C@@H](O)C[C@@]3(C)[C@H]2CC[C@]3(O)C(=O)COC(=O)CCC(=O)O)[C@@]2(C)C=CC(=O)C=C12 [Solumedrol]
[1]; patient 2, July 2008, infusions
  diplopia-type attack: regressive
[1]; patient 2, three infusions September 2010 and 4 infusions 8-11 Aug. 2011, before biotin
  progressive decrease in visual acuity: without any effect
[1]; patient 3, 2004, after 3 infusions, symptomology subsequently reappeared
  evolvement of left homonymous lateral hemianopsia: initially been favourable

## O=C(O)CCCC[C@@H]1SC[C@@H]2NC(=O)N[C@@H]21 [biotin]
[1]; [2]
  brain MRI spectro: choline peak and choline/creatine ratio: clear decrease
  visual evoked potentials: P100 wave on the right: beginnings of a P100 wave on the right
[1]; patient 1, biotin 100 mg three times a day, after six months of treatment
  visual evoked potentials: latency of left P100 wave: 111.8 ms
[1]; [3]
  MRI and brain MRI spectro: unchanged
  balance: more assured
  visual evoked potentials: P100 wave on the left: reappearance of a P100 wave on the left
  visual evoked potentials: P100 wave on the right: no response was noted on the right
  visual evoked potentials: latency of left P100 wave: 126.5 ms
[1]; patient 1, biotin 100 mg three times a day, three months later (before treatment 2/10 on the left)
  visual acuity on the left: 2/10
[1]; patient 1, biotin 100 mg three times a day, three months later (before treatment could only count fingers on the right)
  visual acuity on the right: 5/10
[1]; patient 1, biotin increased to 600 mg/day, after nine months of treatment
  visual evoked potentials: P100 wave: bilateral P100 wave was noted
[1]; patient 1, discussion
  motor problems: corrected and were stabilized
[1]; patient 1, long-term treatment
  balance between beginning of treatment and last visit: also remained stable
[1]; patient 1, long-term, 300 mg/day for 15 months then 100 mg/day for 9 months
  visual acuity between beginning of treatment and last visit: remained stable
[1]; patient 2, biotin 100 mg/day from 6 Mar. 2012, examination 30 Mar. 2012
  visual acuity compared with examination before treatment: no improvement
[1]; patient 3, biotin 100 mg/day begun 12 Apr. 2012, examination 30 Jun. 2012
  visual field (automated campimetry): homonymous lateral hemianopsia: improvement in the visual field in the upper left quadrant; also recorded: clear improvement
[1]; the three patients
  time to improvement after introduction of the treatment: within three months

## glatiramer acetate
Multiple sclerosis
  efficacy in multiple sclerosis: proven to be effective
